# Laboratory results taken from patent US6369069B1 (Aventis Pharma Deutschland GmbH, priority 1998, dated 2002).
# Tested on: Na^+-dependent Cl^−/HCO3^− exchanger (NCBE)
# Assay: Inhibition of the Na+-dependent Cl−/HCO3− exchanger (NCBE) in human endothelial cells (pHi recovery, BCECF fluorescence, FLIPR)
# Assay type: cell-based
# Conditions: 10 μM
# Method: Inhibition of the Na^+-dependent Cl^−/HCO3^− exchanger (NCBE) in human endothelial cells
# Human endothelial cells (ECV-304) were detached form culture flasks with the aid of trypsin/EDTA buffer (0.05/0.02% in phosphate buffer) and, after centrifugation (100 g, 5 min), taken up in a buffered saline solution (mmol/l: 115 NaCl, 20 NH4Cl, 5 KCl, 1 CaCl2, 1 MgSO4, 20 N-(2-hydroxyethyl)-piperazine-N[…]-2-ethanesulfonic acid (HEPES), 5 glucose and 1 g/l of bovine serum albumin; pH 7.4). This cell suspension was incubated at 37 °C. for 20 min with 5 μM BCECF acetoxymethyl ester. The cells were then washed and resuspended in a sodium- and bicarbonate-free buffer solution (mmol/l: 5 HEPES, 133.8 choline chloride, 4.7 KCl, 1.25 MgCl2, 0.97 K2HPO4, 0.23 KH2PO4, 5 glucose; pH 7.4).
# For the subsequent fluorescence measurement in the FLIPR (Fluorescent Imaging Plate Reader), 100 μl of this cell suspension in each case containing 20,000 cells were added by pipette per well of a 96-well microtiter plate and this microtiter plate was centrifuged (100 g, 5 min). In the FLIPR, 100 μl of buffer solution in each case were then removed from a further prepared microtiter plate and added by pipette to each of the 96 wells of the measuring plate. In this case, for a 100% control, i.e. a recovery of the intracellular pH (pHi) by means of the NCBE, a bicarbonate- and sodium-containing buffer solution (mmol/l: 5 HEPES, 93.8 NaCl, 40 NaHCO3, 4.7 KCl, 1.25 CaCl2, 1.25 MgCl2, 0.97 Na2HPO4, 0.23 NaH2PO4, 5 glucose; pH 7.4) which contained 50 μM HOE 642 was used. For a 0% control, i.e. no pHi recovery at all, a bicarbonate-free, sodium-containing buffer solution (mmol/l: 5 HEPES, 133.8 NaCl, 4.7 KCl, 1.25 CaCl2, 1.25 MgCl2, 0.97 Na2HPO4, 0.23 NaH2PO4, 5 glucose; pH 7.4) to which 50 μM HOE 642 were also added was employed. The compounds according to the invention were added in various concentrations of the sodium- and bicarbonate-containing solution. After addition of the buffer solutions to the dye-loaded acidified cells situated in the measuring plate, the increase in the fluorescence intensity which corresponded to an increase in the pHi was determined in each well of the microtiter plate.
# The kinetics were in this case recorded at 35° C. over a period of 2 minutes. The increase in the fluorescence intensities for different concentrations of the compounds according to the invention was related to the two controls and from this the inhibitory action of the substances was determined.
row,Structure (SMILES),Residual activity % of the NCBE at 10 μM
1,COc1ccc(CCN(Cc2ccc(-c3ccccc3S(=O)(=O)NC#N)cc2)C(=O)c2cc3ccccc3s2)cc1 [Example 80],66.7%
2,N#CNS(=O)(=O)c1ccccc1-c1ccc(CN(Cc2ccccc2Cl)C(=O)c2cccs2)cc1 [Example 81],36.0%
3,CC(C)CN(Cc1ccc(-c2ccccc2S(=O)(=O)NC#N)cc1)C(=O)c1cccs1 [Example 82],99.8%
4,C[C@@H](c1ccccc1)N(Cc1ccc(-c2ccccc2S(=O)(=O)NC#N)cc1)C(=O)c1cccs1 [Example 83],97.5%
5,COc1ccccc1CN(Cc1ccc(-c2ccccc2S(=O)(=O)NC#N)cc1)C(=O)c1cccs1 [Example 84],54.7%
6,Cc1ccc(CN(Cc2ccc(-c3ccccc3S(=O)(=O)NC#N)cc2)C(=O)c2cccs2)cc1 [Example 85],51.1%
7,COc1cccc(CN(Cc2ccc(-c3ccccc3S(=O)(=O)NC#N)cc2)C(=O)c2cccs2)c1 [Example 86],57.0%
8,N#CNS(=O)(=O)c1ccccc1-c1ccc(CN(Cc2ccc3c(c2)OCO3)C(=O)c2cccs2)cc1 [Example 87],54.8%
9,N#CNS(=O)(=O)c1ccccc1-c1ccc(CN(Cc2ccc(C(F)(F)F)cc2)C(=O)c2cccs2)cc1 [Example 89],67.6%
10,COc1ccc(CCN(Cc2ccc(-c3ccccc3S(=O)(=O)NC#N)cc2)C(=O)c2cccs2)cc1 [Example 90],84.2%
11,N#CNS(=O)(=O)c1ccccc1-c1ccc(CN(Cc2ccccc2Cl)C(=O)c2ccccc2F)cc1 [Example 91],62.7%
12,C[C@@H](c1ccccc1)N(Cc1ccc(-c2ccccc2S(=O)(=O)NC#N)cc1)C(=O)c1ccccc1F [Example 93],92.9%
13,COc1ccccc1CN(Cc1ccc(-c2ccccc2S(=O)(=O)NC#N)cc1)C(=O)c1ccccc1F [Example 94],87.7%
14,Cc1ccc(CN(Cc2ccc(-c3ccccc3S(=O)(=O)NC#N)cc2)C(=O)c2ccccc2F)cc1 [Example 95],74.7%
15,C[C@H](c1ccccc1)N(Cc1ccc(-c2ccccc2S(=O)(=O)NC#N)cc1)C(=O)c1ccccc1F [Example 98],98.0%
16,N#CNS(=O)(=O)c1ccccc1-c1ccc(CN(Cc2ccc(C(F)(F)F)cc2)C(=O)c2ccccc2F)cc1 [Example 99],89.6%
17,COc1ccc(CCN(Cc2ccc(-c3ccccc3S(=O)(=O)NC#N)cc2)C(=O)c2ccccc2F)cc1 [Example 100],94.1%
18,N#CNS(=O)(=O)c1ccccc1-c1ccc(CN(Cc2ccccc2Cl)C(=O)c2ccccc2Cl)cc1 [Example 101],62.6%
19,COc1cccc(CN(Cc2ccc(-c3ccccc3S(=O)(=O)NC#N)cc2)C(=O)c2ccccc2Cl)c1 [Example 106],98.9%
20,N#CNS(=O)(=O)c1ccccc1-c1ccc(CN(Cc2ccc3c(c2)OCO3)C(=O)c2ccccc2Cl)cc1 [Example 107],96.4%
21,C[C@H](c1ccccc1)N(Cc1ccc(-c2ccccc2S(=O)(=O)NC#N)cc1)C(=O)c1ccccc1Cl [Example 108],87.7%
22,N#CNS(=O)(=O)c1ccccc1-c1ccc(CN(Cc2ccc(C(F)(F)F)cc2)C(=O)c2ccccc2Cl)cc1 [Example 109],75.4%
23,N#CNS(=O)(=O)c1ccccc1-c1ccc(CN(Cc2ccccc2Cl)C(=O)C(c2ccccc2)c2ccccc2)cc1 [Example 111],80.5%
24,CC(C)CN(Cc1ccc(-c2ccccc2S(=O)(=O)NC#N)cc1)C(=O)C(c1ccccc1)c1ccccc1 [Example 112],90.4%
25,C[C@@H](c1ccccc1)N(Cc1ccc(-c2ccccc2S(=O)(=O)NC#N)cc1)C(=O)C(c1ccccc1)c1ccccc1 [Example 113],94.6%
